Key:
AChE [1] = molecular target: T1, AChE (Homo sapiens, UniProt P22303); assay: biochemical; conditions: for IC50: Ellman method, 30 °C, 25 min, pH 8.0, mean ± SD; for Selectivity for AChE, IC50 (BChE)/IC50 (AChE): ratio IC50 (BChE)/IC50 (AChE)
Description: (§1) AChE/BChE activity assays were carried out by Ellman method with slight modification. Each compound was dissolved in Tween 80 and diluted with water to various concentrations immediately before use. The assay solution which contained 40 μL AChE/BChE, 100 μL acetylthiocholine iodide/S-butyrylthiocholine iodide, 2.76 ml Na2HPO4/NaH2PO4 buffer (pH 8.0, 0.1 M), and 100 μL tested compound solution with different concentrations were incubated at 30 °C for 25 min. Then, the reaction was terminated with 100 μL 20% sodium dodecylsulphate (SDS), then 100 μL 10 mM […] (DTNB) as chromogenic agent was added into the mixture. […] The IC50 values were calculated by Bliss method and expressed as Mean ± SD of the replicates.

BChE = BChE (Homo sapiens, UniProt P06276); assay: biochemical; conditions: Ellman method, 30 °C, 25 min, pH 8.0; mean ± SD
Chain of BChE (P06276 29-602): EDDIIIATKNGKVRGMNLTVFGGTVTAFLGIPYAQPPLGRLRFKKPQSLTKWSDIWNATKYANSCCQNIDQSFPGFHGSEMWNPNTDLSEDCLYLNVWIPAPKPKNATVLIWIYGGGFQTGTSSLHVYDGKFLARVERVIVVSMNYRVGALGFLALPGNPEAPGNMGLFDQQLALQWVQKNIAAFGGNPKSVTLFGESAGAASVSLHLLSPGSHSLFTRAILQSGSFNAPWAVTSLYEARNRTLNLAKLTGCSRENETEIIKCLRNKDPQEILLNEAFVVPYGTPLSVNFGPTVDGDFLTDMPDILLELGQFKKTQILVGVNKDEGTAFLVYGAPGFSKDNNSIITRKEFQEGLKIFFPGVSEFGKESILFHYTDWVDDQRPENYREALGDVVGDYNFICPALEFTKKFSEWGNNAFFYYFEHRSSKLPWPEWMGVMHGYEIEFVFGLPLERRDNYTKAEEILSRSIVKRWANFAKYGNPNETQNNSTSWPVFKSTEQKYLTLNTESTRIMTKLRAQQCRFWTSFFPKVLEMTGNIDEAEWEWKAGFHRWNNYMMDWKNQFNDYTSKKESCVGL
Description: as §1

[2] = Octanol/buffer partition coefficient by shake flask method; type: physicochemical; conditions: octanol/buffer (PBS) pH 7.4, shake-flask, 37 °C, HPLC; for logP: octanol/phosphate buffer solution (PBS)
Description: The aqueous phase was replaced by phosphate buffer solution (PBS, pH = 7.4). The assay mixture containing tested compounds was shaken at 37 °C over night and then centrifuged at 2000 rpm for 20 min, followed by the analysis with HPLC. […] Experiments were conducted in triplicate and log p values were calculated.

AChE [3] = molecular target: T1, AChE; assay: Kinetic study of AChE inhibition (Lineweaver-Burk); type: biochemical
Description: Kinetic characterisation of AChE/BChE was performed by a modified method previous reported. Compound 7a was pre-incubated with the enzyme at 30 °C, then 100 µL acetylthiocholine iodide including five concentrations was added into the assay mixture and kinetic characterisation was conducted spectrometrically at 412 nm. Additionally, the parallel control experiment was made without compound 7a in the mixture.
Compound 7a was selected for kinetic studies. The linear Lineweaver–Burk equation of the Michaelis–Menten was applied to evaluate the inhibition profile. The analysis of the steady-state inhibition data of compound 7a was shown in Supplement data: Table 2.

T1 sequence (P22303 32-614): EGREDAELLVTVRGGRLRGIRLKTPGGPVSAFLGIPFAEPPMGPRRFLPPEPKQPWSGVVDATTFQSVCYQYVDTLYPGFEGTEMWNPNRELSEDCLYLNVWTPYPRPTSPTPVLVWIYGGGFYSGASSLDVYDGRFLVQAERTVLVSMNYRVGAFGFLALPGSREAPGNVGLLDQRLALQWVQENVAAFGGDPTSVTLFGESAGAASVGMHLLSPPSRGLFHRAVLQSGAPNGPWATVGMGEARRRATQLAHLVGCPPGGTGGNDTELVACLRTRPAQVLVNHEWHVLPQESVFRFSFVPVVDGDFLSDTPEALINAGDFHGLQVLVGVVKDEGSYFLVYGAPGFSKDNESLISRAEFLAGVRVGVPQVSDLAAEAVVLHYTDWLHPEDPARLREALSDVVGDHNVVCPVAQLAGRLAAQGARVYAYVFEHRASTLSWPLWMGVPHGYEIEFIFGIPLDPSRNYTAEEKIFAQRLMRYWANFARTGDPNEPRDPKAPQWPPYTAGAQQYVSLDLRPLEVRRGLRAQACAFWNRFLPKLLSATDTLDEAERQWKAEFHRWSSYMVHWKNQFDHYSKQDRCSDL

| SMILES | IC50 (AChE [1]) [µM] | Selectivity for AChE, IC50 (BChE)/IC50 (AChE) (AChE [1]) | IC50 (BChE) [µM] | logP [2] | Vmax (AChE [3]; AChE, 0.85 µM compound 7a) | Vmax (AChE [3]; AChE, 1.70 µM compound 7a) | Vmax (AChE [3]; AChE, 3.41 µM compound 7a) | non-competitive constant (Ki') (AChE [3]; AChE, Lineweaver-Burk analysis) [µM] | Ki (AChE [3]; AChE, Lineweaver-Burk analysis, read-out: competitive inhibition constant (Ki)) [µM] | type of inhibition against AChE (AChE [3]; Lineweaver-Burk analysis) | Log p [2] |
| --- | --- | --- | --- | --- | --- | --- | --- | --- | --- | --- | --- |
| CN(C)CCOc1ccccc1NC(=O)c1ccncc1 [Compound 7c] | > 500 | <0.0892 | 44.6 ± 1.16 | 1.37 |  |  |  |  |  |  |  |
| CN(C)CCOc1ccc(NC(=O)c2ccncc2)cc1 [Compound 7a] | 2.49 ± 0.19 | 99.4 | 247 ± 7.54 | 1.26 | 0.017 ΔAmin-1 | 0.014 ΔAmin-1 | 0.012 ΔAmin-1 | 3.28 | 4.69 | mixed-type inhibition |  |
| CN(C)CCOc1ccc(NC(=O)c2ccccc2)cc1 [Compound 4a] | 18.2 ± 1.16 | 7.84 | 143 ± 5.56 |  |  |  |  |  |  |  | 1.12 |
| CN(C)CCOc1ccccc1NC(=O)c1ccccn1 [Compound 7i] | > 500 | <0.0549 | 27.4 ± 2.31 | 1.18 |  |  |  |  |  |  |  |
| CN(C)CCOc1ccc(NC(=O)c2cccnc2)cc1 [Compound 7d] | 5.76 ± 0.41 | 42.80 | 246.5 ± 1.85 | 1.33 |  |  |  |  |  |  |  |
| CN(C)CCOc1cccc(NC(=O)c2ccccc2)c1 [Compound 4b] | 75.8 ± 4.13 | 0.276 | 20.9 ± 1.61 | 1.18 |  |  |  |  |  |  |  |
| CN(C)CCOc1cccc(NC(=O)c2ccncc2)c1 [Compound 7b] | 38.4 ± 2.19 | 1.26 | 48.6 ± 2.23 | 1.31 |  |  |  |  |  |  |  |
| CN(C)CCOc1ccccc1NC(=O)c1ccccc1 [Compound 4c] | > 500 | <0.0359 | 18 ± 1 | 1.23 |  |  |  |  |  |  |  |
| CN(C)CCOc1cccc(NC(=O)c2cccnc2)c1 [Compound 7e] | 13.2 ± 1.73 | 1.67 | 22.1 ± 1.01 | 1.37 |  |  |  |  |  |  |  |
| CN(C)CCOc1cccc(NC(=O)c2ccccn2)c1 [Compound 7h] | 73 ± 3.03 | 0.492 | 35.9 ± 0.94 | 1.37 |  |  |  |  |  |  |  |
| CN(C)CCOc1ccccc1NC(=O)c1cccnc1 [Compound 7f] | 75.8 ± 0.84 | 0.441 | 33.4 ± 1.37 | 1.42 |  |  |  |  |  |  |  |
| CN(C)CCOc1ccc(NC(=O)c2ccccn2)cc1 [Compound 7g] | 4.68 ± 0.3 | 24.4 | 114 ± 7.73 | 1.14 |  |  |  |  |  |  |  |

— publication PMC6009985, “Structure–activity relationship investigation of benzamide and picolinamide derivatives containing dimethylamine side chain as acetylcholinesterase inhibitors” (Journal of Enzyme Inhibition and Medicinal Chemistry, 2017)
